Laboratory results as given in PubChem BioAssay (NCI).
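Each compound was tested at five concentrations against cells in 96-well plates for 48 hours. Here, GI50 denotes the concentration required for 50% inhibition of growth. TGI: total growth inhibition.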

Experiments:
Assay in all cases: NCI-60 cell line screen, 48 h
SW-620 colon = system: SW-620 colon
CAKI-1 renal = system: CAKI-1 renal
NCI-H23 lung = system: NCI-H23 lung
IGROV1 ovarian = system: IGROV1 ovarian
HCT-15 colon = system: HCT-15 colon
786-0 renal = system: 786-0 renal
DU-145 prostate = system: DU-145 prostate
HT29 colon = system: HT29 colon
NCI-H522 lung = system: NCI-H522 lung
UACC-62 melanoma = system: UACC-62 melanoma
OVCAR-3 ovarian = system: OVCAR-3 ovarian
A498 renal = system: A498 renal
RPMI-8226 leukemia = system: RPMI-8226 leukemia
UACC-257 melanoma = system: UACC-257 melanoma
HOP-92 NSCLC = system: HOP-92 NSCLC
M14 melanoma = system: M14 melanoma
BT-549 breast = system: BT-549 breast
U251 CNS = system: U251 CNS
EKVX NSCLC = system: EKVX NSCLC
UO-31 renal = system: UO-31 renal
SK-OV-3 ovarian = system: SK-OV-3 ovarian
LOX IMVI melanoma = system: LOX IMVI melanoma
NCI/ADR-RES ovarian = system: NCI/ADR-RES ovarian
SF-539 CNS = system: SF-539 CNS
SNB-19 CNS = system: SNB-19 CNS
SNB-75 CNS = system: SNB-75 CNS
MDA-MB-435 = system: MDA-MB-435
HS 578T breast = system: HS 578T breast
SF-295 CNS = system: SF-295 CNS

COc1cc(NC(N)=NCCC(C)(C)c2ccc(C(F)(F)F)cc2)ncc1C#N
GI50 (SW-620 colon): 2010 nM | TGI (SW-620 colon): 4140 nM | GI50 (CAKI-1 renal): 1420 nM | TGI (CAKI-1 renal): 2740 nM | GI50 (NCI-H23 lung): 1530 nM | TGI (NCI-H23 lung): 3150 nM | GI50 (IGROV1 ovarian): 1680 nM | TGI (IGROV1 ovarian): 3390 nM | GI50 (HCT-15 colon): 1530 nM | TGI (HCT-15 colon): 2900 nM | GI50 (786-0 renal): 1710 nM | TGI (786-0 renal): 3140 nM | GI50 (DU-145 prostate): 1930 nM | TGI (DU-145 prostate): 3510 nM | GI50 (HT29 colon): 1620 nM | TGI (HT29 colon): 3140 nM | GI50 (NCI-H522 lung): 1440 nM | TGI (NCI-H522 lung): 2970 nM | GI50 (UACC-62 melanoma): 1710 nM | TGI (UACC-62 melanoma): 3100 nM | GI50 (OVCAR-3 ovarian): 1790 nM | TGI (OVCAR-3 ovarian): 3500 nM | GI50 (A498 renal): 1880 nM | TGI (A498 renal): 3690 nM | GI50 (RPMI-8226 leukemia): 1270 nM | TGI (RPMI-8226 leukemia): 3300 nM | GI50 (UACC-257 melanoma): 1770 nM | TGI (UACC-257 melanoma): 3320 nM | GI50 (HOP-92 NSCLC): 1300 nM | TGI (HOP-92 NSCLC): 2740 nM | GI50 (M14 melanoma): 1700 nM | TGI (M14 melanoma): 3240 nM | GI50 (BT-549 breast): 1740 nM | TGI (BT-549 breast): 3210 nM | GI50 (U251 CNS): 1670 nM | TGI (U251 CNS): 3050 nM | GI50 (EKVX NSCLC): 1400 nM | TGI (EKVX NSCLC): 2870 nM | GI50 (UO-31 renal): 1340 nM | TGI (UO-31 renal): 2660 nM | GI50 (SK-OV-3 ovarian): 2130 nM | TGI (SK-OV-3 ovarian): 4060 nM | GI50 (LOX IMVI melanoma): 1580 nM | TGI (LOX IMVI melanoma): 2920 nM | GI50 (NCI/ADR-RES ovarian): 1800 nM | TGI (NCI/ADR-RES ovarian): 3290 nM | GI50 (SF-539 CNS): 1870 nM | TGI (SF-539 CNS): 3330 nM | GI50 (SNB-19 CNS): 1790 nM | TGI (SNB-19 CNS): 3440 nM | GI50 (SNB-75 CNS): 1660 nM | TGI (SNB-75 CNS): 3260 nM | GI50 (MDA-MB-435): 1780 nM | TGI (MDA-MB-435): 3250 nM | GI50 (HS 578T breast): 2140 nM | TGI (HS 578T breast): 4550 nM | GI50 (SF-295 CNS): 1600 nM | TGI (SF-295 CNS): 3060 nM
